# In patent US20210341378A1, “HIGH-CONTENT IMAGING OF MICROFLUIDIC DEVICES” (priority 2019, published 2021):
# Assays:
# [1] = tested on: microfluidic devices seeded with human liver cells; assay: Albumin secretion (ELISA), human Liver-Chip; type: cell-based
# From the text: Prior to cell seeding, microfluidic devices, in this case S-I Chips (Emulate, Inc. Boston, Mass., USA), were functionalized using Emulate's proprietary protocols and reagents (ER™), including those described herein. After surface functionalization, both channels of the microfluidic device were coated with species-specific extracellular matrices (ECM). For the human bound microfluidic device, a mixture of collagen type I (Corning, Corning, N.Y., USA) and fibronectin, e.g. bovine, (Gibco) was used; for the rat bound microfluidic devices a mixture of collagen type IV, e.g. human placenta, (Sigma-Aldrich, St. Louis, Mo., USA) and fibronectin (Gibco) was used; for the dog bound microfluidic devices a mixture of collagen I (Corning), collagen type IV (Sigma-Aldrich), and fibronectin (Gibco) was used. […] For the dual-cell culture model (hepatocytes and endothelial cells), the LSECs were seeded at a concentration of 2-4 million cells/mL in the lower vascular channel. […] After cell seeding, the upper channel of the microfluidic device was maintained in William's E Medium (WEM) containing Glutamax (Gibco), ITS+ (Corning), dexamethasone (Sigma-Aldrich), ascorbic acid (Sigma-Aldrich), fetal bovine serum (FBS) (Sigma-Aldrich), and Penicillin/Streptomycin (Sigma-Aldrich). The vascular channel of the microfluidic device was maintained with species-specific endothelial media (Emulate, Inc.). Two days after seeding, the microfluidic devices were connected to the Human Emulation System™ (Emulate, Inc.), as described in part herein, and both of the microfluidic device channels were perfused at 30 μL/hr to provide a continuous supply of fresh media for the duration of the experiments. Albumin secretion from the upper channel was quantified using ELISA kits for human, rat, and dog models effluent samples (human and rat: Abcam; dog: Immunology Consultants Laboratory, Inc., Portland, Oreg., USA) and the assays were performed according to the protocol provided by each vendor.
# [2] = tested on: microfluidic devices seeded with rat liver cells; assay: Albumin secretion (ELISA), rat Liver-Chip; type: cell-based; details: FIAU 1, 10 and 30 μM, rat chip
# From the text: Prior to cell seeding, microfluidic devices, in this case S-I Chips (Emulate, Inc. Boston, Mass., USA), were functionalized using Emulate's proprietary protocols and reagents (ER™), including those described herein. After surface functionalization, both channels of the microfluidic device were coated with species-specific extracellular matrices (ECM). For the human bound microfluidic device, a mixture of collagen type I (Corning, Corning, N.Y., USA) and fibronectin, e.g. bovine, (Gibco) was used; for the rat bound microfluidic devices a mixture of collagen type IV, e.g. human placenta, (Sigma-Aldrich, St. Louis, Mo., USA) and fibronectin (Gibco) was used; for the dog bound microfluidic devices a mixture of collagen I (Corning), collagen type IV (Sigma-Aldrich), and fibronectin (Gibco) was used. […] For the dual-cell culture model (hepatocytes and endothelial cells), the LSECs were seeded at a concentration of 2-4 million cells/mL in the lower vascular channel. […] Albumin secretion from the upper channel was quantified using ELISA kits for human, rat, and dog models effluent samples (human and rat: Abcam; dog: Immunology Consultants Laboratory, Inc., Portland, Oreg., USA) and the assays were performed according to the protocol provided by each vendor.
# [3] = tested on: microfluidic devices seeded with human liver cells; assay: Release of DILI biomarkers (miR-122, alpha-GST, keratin 18), human Liver-Chip; type: cell-based
# From the text: Exemplary Biomarker, e.g. DILI: Keratin 18 levels were quantified in human model effluent samples from both the hepatocyte and vascular channels using the M65 EpiDeath CK18 ELISA Kit (DiaPharma, Detroit, Mich., USA). The assay was run following the vendor protocol using a standard curve ranging from 0-5,000 U/L. Additionally, a standard curve ranging from 0-500 U/L was generated independently for quality control.
# Exemplary Biomarker, e.g. DILI: Alpha Glutathione S-Transferase (α-GST) levels were quantified in human model effluent samples from the upper channel using an ELISA kit (DiaPharma). The assay was run following the vendor protocol using a standard curve ranging from 0-64 μg/L. Additionally, a standard curve ranging from 0-50 μg/L was generated independently for quality control.
# Exemplary Biomarker, e.g. DILI: Mir-122: Isolation of micro-RNAs was performed on upper and lower chamber eluates using Qiagen's (Hilden, Germany) miRNA isolation kit for serum and plasma. A total volume of 50 μL was used for isolation. Isolation was performed according to manufacturer's protocol using a 56.5 pM oligonucleotide spike-in control. Samples were eluted with 14 μL RNase-free water. Reverse transcription was performed using Thermo Fisher Scientific's TaqMan™ MicroRNA Reverse Transcription Kit according to the manufacturer's protocol. A total reaction volume of 15 μL was used. Real-time PCR was performed using Thermo Fisher Scientific's TaqMan™ Micro-RNA Assays according to manufacturer's protocol. A total reaction volume of 10 μL was used. Normalized rrCt was used for fold-change analysis.
# [4] = tested on: microfluidic devices seeded with human liver cells; assay: Cytokine release (IL-6, MCP-1, IP-10) from vascular channel, human Liver-Chip; type: cell-based; details: for cytokines/chemokines including IP-10: treated Liver-Chips (discussion); for release of IL-6 / release of MCP-1: 14 days
# Method: Cytokines: Release of IL-6, MCP-1, and IP-10 from the vascular channel was quantified using U-PLEX biomarker human assays (Meso Scale Diagnostics, Rockville, Md., USA) and the assays were performed according to the protocol provided by the vendor.
# [5] = tested on: microfluidic devices seeded with human liver cells; assay: Lipid accumulation (Nile red / AdipoRed), human Liver-Chip; type: cell-based
# From the text: (§1) Microfluidic devices seeded with liver cells were stained in the upper channel with 5(6)-Carboxy-2′,7′-dichlorofluorescein diacetate (CDFDA) (ThermoFisher) to visualize bile canaliculi and MRP2 activity, cholyl-lysyl-fluorescein (CLF) (Corning) to visualize bile canaliculi and BSEP activity, Nile red (ThermoFisher) or AdipoRed (Lonza) to visualize lipid droplet accumulation, Tetramethylrhodamine, methyl ester (TMRM) (ThermoFisher) to visualize active mitochondria, and CellROX® (ThermoFisher) to visualize cellular oxidative stress. Each staining solution was prepared in blank medium or compound dosing medium and added to the upper channel, incubated for 15 minutes at 37° C., and washed three times with medium. The stained microfluidic devices were imaged using a specific filter, and were de-blurred with Olympus cellSens software. Using ImageJ-Fiji, the fluorescent channel images were histogram adjusted to remove background, followed by fluorescence quantification using the Integrated Density calculation function.
# (§2) The stained microfluidic devices were imaged using the TRITC filter, and were de-blurred with Olympus cellSens software. Using ImageJ-Fiji, the fluorescent channel images were histogram adjusted to remove background, followed by fluorescence quantification using the Integrated Density calculation function. N=5 FOVs per microfluidic device were analyzed for conditions: vehicle (0.1% DMSO), FIAU dosing groups, and MTX dosing groups.
# [6] = tested on: microfluidic devices seeded with rat liver cells; assay: Lipid accumulation (Nile red), rat Liver-Chip; type: cell-based; details: FIAU 1, 10 and 30 μM for 10 days
# From the text: as §1, with “The stained microfluidic devices were imaged using a specific filter, and were de-blurred with Olympus cellSens software.” left out
# as §2
# [7] = cited from earlier work
# [8] = tested on: stellate cells; assay: Stellate cell activation (alpha-SMA), human Liver-Chip; type: cell-based
# Method: Microfluidic devices seeded with liver cells and static sandwich plate cultures were fixed with 4% paraformaldehyde for 15 minutes at room temperature, washed with PBS, and permeabilized (saponin 1% with 10% serum in PBS). Blocking and incubation with the primary antibodies (overnight in PBS containing 1% BSA or PBS containing 10% serum and 1% BSA) was followed by a two-hour incubation with secondary antibodies (Cell Signaling, Danvers, Mass., USA) in the same blocking buffer. Immunostaining was performed with specific primary antibodies (anti-MRP2, anti-stabilin-1, anti-BSEP, anti-α-SMA, anti-CD68; Abcam, Cambridge, Mass., USA) and images were acquired with either an Olympus fluorescence microscope (IX83) or Zeiss confocal microscope (AxiovertZ1 LSM880).
# The number of CD68- or α-SMA-positive cells in the vascular channel in each group was counted in each field of view ([…]) and quantified.
# The fluorescent channel (588) was first background subtracted and processed using the median filter of Image J. After processing, the signal was thresholded using adaptive thresholding function of Image J (Otsu method) to extract fluorescent regions and to measure the relative intensity of the fluorescent signal. N=4 to 6 FOVs per microfluidic device from each microfluidic device were analyzed. […]
# [9] = some patient populations; cited from earlier work
# [10] = tested on: microfluidic devices seeded with human liver cells; assay: ROS (CellROX) live staining, human Liver-Chip; type: cell-based; details: TAK-875, human chip
# [11] = target: T1, MRP2 (Homo sapiens, UniProt Q92887); assay: Biliary efflux of CDFDA (MRP2 activity), human Liver-Chip; type: cell-based; details: TAK-875 3, 10, 30 μM
# T1 construct: Primary rat, dog or human hepatocytes were cultured in the upper parenchymal channel; endogenous in cells; host or cells: primary human hepatocytes in a microfluidic Liver-Chip
# T1 sequence (Q92887 whole entry): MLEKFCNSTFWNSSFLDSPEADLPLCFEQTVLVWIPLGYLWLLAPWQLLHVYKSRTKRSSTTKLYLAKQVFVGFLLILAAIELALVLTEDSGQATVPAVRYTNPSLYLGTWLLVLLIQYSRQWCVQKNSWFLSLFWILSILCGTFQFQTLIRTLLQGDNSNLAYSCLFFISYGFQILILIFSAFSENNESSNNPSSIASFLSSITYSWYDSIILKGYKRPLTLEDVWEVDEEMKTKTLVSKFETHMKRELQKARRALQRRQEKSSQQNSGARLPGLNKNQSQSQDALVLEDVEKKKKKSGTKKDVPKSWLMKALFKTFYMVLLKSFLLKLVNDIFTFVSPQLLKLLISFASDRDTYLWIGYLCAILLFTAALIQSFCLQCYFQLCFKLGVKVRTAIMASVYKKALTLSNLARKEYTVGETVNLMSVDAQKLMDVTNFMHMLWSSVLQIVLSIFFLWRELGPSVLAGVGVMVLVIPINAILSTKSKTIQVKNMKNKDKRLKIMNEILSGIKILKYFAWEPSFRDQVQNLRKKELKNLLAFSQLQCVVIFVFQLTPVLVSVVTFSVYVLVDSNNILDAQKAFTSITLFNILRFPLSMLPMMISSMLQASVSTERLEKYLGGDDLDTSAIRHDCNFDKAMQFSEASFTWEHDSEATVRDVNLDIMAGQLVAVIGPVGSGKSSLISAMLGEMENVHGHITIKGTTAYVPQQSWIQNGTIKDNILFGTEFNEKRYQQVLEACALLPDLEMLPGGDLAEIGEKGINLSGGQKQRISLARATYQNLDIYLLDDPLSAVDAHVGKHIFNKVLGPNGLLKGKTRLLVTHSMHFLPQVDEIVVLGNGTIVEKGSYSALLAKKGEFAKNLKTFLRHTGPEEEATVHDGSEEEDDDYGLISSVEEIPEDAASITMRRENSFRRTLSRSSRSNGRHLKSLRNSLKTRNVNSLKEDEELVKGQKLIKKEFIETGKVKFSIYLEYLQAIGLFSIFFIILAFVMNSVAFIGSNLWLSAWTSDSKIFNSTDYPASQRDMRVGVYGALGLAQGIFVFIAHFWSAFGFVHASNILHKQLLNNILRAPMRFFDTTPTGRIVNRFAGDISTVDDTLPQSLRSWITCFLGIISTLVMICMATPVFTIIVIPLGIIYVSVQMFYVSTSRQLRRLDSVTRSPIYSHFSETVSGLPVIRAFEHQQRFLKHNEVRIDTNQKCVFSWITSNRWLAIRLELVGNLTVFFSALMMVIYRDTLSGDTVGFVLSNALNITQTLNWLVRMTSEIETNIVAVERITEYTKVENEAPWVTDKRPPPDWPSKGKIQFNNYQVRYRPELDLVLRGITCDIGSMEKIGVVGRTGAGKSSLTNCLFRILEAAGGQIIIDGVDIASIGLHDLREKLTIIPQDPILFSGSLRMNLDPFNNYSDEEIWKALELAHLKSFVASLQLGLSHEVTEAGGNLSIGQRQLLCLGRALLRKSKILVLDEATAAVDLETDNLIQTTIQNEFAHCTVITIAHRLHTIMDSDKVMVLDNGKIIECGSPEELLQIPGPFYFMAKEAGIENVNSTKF
# Method: Both a brightfield and a fluorescence image was taken from each field of view. […] CLF-labeled regions that most likely to corresponded to bile canaliculi were automatically identified based on geometric criteria and retained only if they co-localized with a bile canaliculi signal in channel 1. […] These criteria were determined empirically using a small test set of images and then applied to images for the analysis. […] The data for treated and control samples were quantified by computing the area percentage of CLF-labeled bile canaliculi within each field of view (FOV).
# [12] = tested on: mitochondrial membrane potential; assay: TMRM staining (mitochondrial membrane potential), human Liver-Chip; type: cell-based; details: TAK-875 3, 10, 30 μM, 8 or 15 days
# From the text: as §1
# [13] = daily 1, 10 and 30 μM for 7 days, quadruple-cell chip
smiles,measurement,setting,value
"O=c1[nH]c(=O)n([C@@H]2O[C@H](CO)[C@@H](O)[C@@H]2F)cc1I [FIAU, fialuridine]",concentrations giving dose-dependent decline in albumin secretion,"[1]; FIAU, human quadruple-cell chip, 7 days",≥ 1000 nM
same,hepatocyte function (albumin secretion),[2],no effects
same,keratin 18 (K-18),"[3]; FIAU 10 days, human chip",release
same,miR122,"[3]; FIAU 10 days, human chip",release
same,α-GST,"[3]; FIAU 10 days, human chip",release
same,cytokines/chemokines including IP-10,[4],release
same,lipid accumulation,"[5]; daily 1, 10 and 30 μM for 10 days, human quadruple-cell chip",dose-dependent increase
same,lipid accumulation,[6],no effects
same,patients with liver failure and deaths,[7]; Phase II clinical trials,5/15
"CN(Cc1cnc2nc(N)nc(N)c2n1)c1ccc(C(=O)N[C@@H](CCC(=O)O)C(=O)O)cc1 [MTX, Methotrexate]",albumin secretion,"[1]; MTX 1, 10 and 30 μM for 7 days, quadruple-cell chip",no abnormalities
same,IP-10,"[4]; MTX treatment, 1 day, vascular channel",increases
same,cytokines/chemokines including IP-10,[4],release
same,lipid accumulation detected by Nile red,[5]; [13],microscopic evidence of lipid accumulation
same,expression of α-SMA (stellate cell activation),[8]; [13],increased expression
same,maximal plasma concentrations at which liver injury occurs in humans,[9],~1 µM
Cc1cc(OCCCS(C)(=O)=O)cc(C)c1-c1cccc(COc2ccc3c(c2)OC[C@H]3CC(=O)O)c1 [TAK-875],albumin production,"[1]; TAK-875 30 μM, 14 days",decreased
same,formation of ROS,[10],increase
same,K18,"[3]; TAK-875 30 μM, 14 days",increased release
same,release of IL-6,[4]; TAK-875 10 μM,significant release
same,release of MCP-1,[4]; TAK-875 10 μM,significant release
same,release of IL-6,[4]; TAK-875 30 μM,not observed
same,release of MCP-1,[4]; TAK-875 30 μM,not observed
same,lipid droplet accumulation,"[5]; TAK-875, end of the 2-week treatment",detected
same,% aSMA positive area from the vascular channel,[8]; TAK-875 10 or 30 uM for 15 days,Not significant
same,biliary efflux of the MRP2 substrate CDFDA,[11],dose-dependent decrease
same,mitochondrial potential sensitive dye TMRM,[12],dose-related and time-dependent redistribution
same,incidence of treatment-related elevations in transaminases,"[7]; human, in vivo",2.7%
